# Measured values published in PMC9865188 (Pharmaceutics, 2023).
# Like-named read-outs stand apart in the source and are kept apart here.
# Experiments:
# Caco-2 cells [1] = system: Caco-2 cells
# Caco-2 cells [2] = system: Caco-2 cells; remark: listed apart in the source
# MDCKII-MDR1 cells = experiment: Monolayer integrity: lucifer yellow permeability, MDCKII-MDR1 (series 2); conditions: MDCKII-MDR1, series 2, 100 µM lucifer yellow
# Protocol: For (2) and (3), passive permeability was assessed by supplementation of 100 µM lucifer yellow to all donor solutions.
# Papp was calculated by dividing the flux with the measured donor concentration.
# [3] = cited from earlier work
compound,measurement,setting,value
OC[C@@H](O)[C@@H](O)[C@H](O)[C@H](O)CO [^3H-mannitol],3H-mannitol permeability,Caco-2 cells [1],0.31–1.4 × 10^−6 cm/s
lucifer yellow,Lucifer yellow permeability,Caco-2 cells [2],0.15–1.1 × 10^−6 cm/s
same,Lucifer yellow permeability,MDCKII-MDR1 cells,0.39–1.2 × 10^−6 cm/s
polysorbate 20,critical micelle concentration (CMC),"[3]; in water, temperatures of 22–40 °C",11 to 57 µM
same,critical micelle concentration (CMC),[3]; room temperature,11 to 42 µM
